Usually IC50 stands for the concentration needed to halve the response being measured.

Where a SMILES comes first, the peptide text is derived from it. The star is where a group is joined. X1 = O=C(Cc1ccc(O)cc1)*

This is an account of results in BindingDB's records for doi:10.1021/acs.jmedchem.0c00689 (Virginia Commonwealth University, 2020).

Test [1] is described as follows: Inhibition of recombinant human full-length His6-tagged NTMT1 (1 to 222 residues) expressed in Escherichia coli BL21-CodonPlus(DE3)-RIL competent cells assessed as Me2RCC1 level at 2 uM pre-incubated for 10 mins before RCC1 substrate addition and measured after 15 mins by Western blot analysis relative to control.
The nature of test [2]: Inhibition of recombinant human full-length His6-tagged NTMT1 (1 to 222 residues) expressed in Escherichia coli BL21-CodonPlus(DE3)-RIL competent cells assessed as Me2RCC1 level at 10 uM pre-incubated for 0 mins before RCC1 substrate addition and measured after 15 mins by Western blot analysis relative to control. (A western blot detects proteins with antibodies after separation by electrophoresis.)

The nature of test [3]: Inhibition of recombinant human full-length His6-tagged NTMT1 (1 to 222 residues) expressed in Escherichia coli BL21-CodonPlus(DE3)-RIL competent cells assessed as Me3RCC1 level at 50 uM pre-incubated for 10 mins before RCC1 substrate addition and measured after 15 mins by Western blot analysis relative to control.
Test [4] in a line: Inhibition of recombinant human full-length His6-tagged NTMT1 (1 to 222 residues) expressed in Escherichia coli BL21-CodonPlus(DE3)-RIL competent cells assessed as Me3RCC1 level at 2 uM pre-incubated for 10 mins before RCC1 substrate addition and measured after 15 mins by Western blot analysis relative to control.
A short description of test [5]: Inhibition of recombinant human full-length His6-tagged NTMT1 (1 to 222 residues) expressed in Escherichia coli BL21-CodonPlus(DE3)-RIL competent cells assessed as Me2RCC1 level at 10 uM pre-incubated for 10 mins before RCC1 substrate addition and measured after 15 mins by Western blot analysis relative to control.

Turning to `N=C(N)NCCC[C@H](NC(=O)[C@H](CCCCN)NC(=O)[C@@H]1CCCN1C(=O)Cc1ccc(O)cc1)C(N)=O`, the IC50 in test [1] turned out to be 100 nM; in test [2], 1000 nM; in test [3] it was 100 nM.

Take `N=C(N)NCCC[C@H](NC(=O)[C@H](CCCNC(=N)N)NC(=O)[C@H](CCCNC(=N)N)NC(=O)[C@H](CCC(N)=O)NC(=O)[C@H](CCCNC(=N)N)NC(=O)[C@H](CCCNC(=N)N)NC(=O)[C@H](CCCCN)NC(=O)[C@H](CCCCN)NC(=O)[C@H](CCCNC(=N)N)NC(=O)CNC(=O)[C@H](CCCNC(=N)N)NC(=O)[C@H](CCCCN)NC(=O)[C@@H]1CCCN1C(=O)Cc1ccc(O)cc1)C(N)=O`: the IC50 was determined as 1000 nM in test [4], 1000 nM in test [5], 700 nM in test [2] and 200 nM in test [3].

In the case of `N=C(N)NCCC[C@H](NC(=O)[C@H](CCCNC(=N)N)NC(=O)[C@H](CCCNC(=N)N)NC(=O)[C@H](CCCNC(=N)N)NC(=O)[C@H](CCCNC(=N)N)NC(=O)[C@H](CCCNC(=N)N)NC(=O)[C@H](CCCCN)NC(=O)[C@@H]1CCCN1C(=O)Cc1ccc(O)cc1)C(N)=O` (X1-PKRRRRRR-NH2), the IC50 in test [4] came to 800 nM; in test [5] it was 1000 nM; in test [1], 100 nM; in test [2] it was 900 nM; in test [3] it was 100 nM.
